In US6342501B1, “Pyrrolo[2,3-d] pyrimidines as antiviral agents” (The Regents of the University of Michigan, priority 1994, dated 2002):
Where two headings read alike, the source gives them in different places.

What was measured:
KB cells = test: Cytotoxicity: KB cell growth (crystal violet staining); type: cell-based; conditions: Homo sapiens, read-out: KBgrv
Method: (§1) Two different assays were used to explore cytotoxicity of selected compounds: (i) Cytotoxicity produced in stationary HFF cells was determined by microscopic inspection of cells used in plaque assays which were not affected by the virus [Turk, S. R., et al, Antimicrob.
Briefly, 96-well cluster dishes were planted with KB cells at 3000-5000 cells per well. After overnight incubation at 37° C., test compound was added in quadruplicate at six to eight concentrations. Plates were incubated at 37° C for 48 hours in a CO2 incubator, rinsed, fixed with 95% ethanol, and stained with 0.1% crystal violet. Acidified ethanol was added and plates read at 570 nm in a spectrophotometer designed to read 96-well ELISA assay plates.
(§2) Dose-response relationships were constructed by linearly regressing the percent inhibition of parameters derived in the preceding sections against logarithm 10 drug concentrations. […] Samples containing positive controls (acyclovir for HSV-1 and ganciclovir for HCMV) were used in all assays.

[1] = test system: human cytomegalovirus (HCMV); test: microbe, parasite or virus in culture; type: cell-based, Towne strain; conditions: for IC50: Human betaherpesvirus 5, HFF, read-out: HCMV; for antiviral activity against HCMV (in words): comment on Table 1 data
Method: (§3) The routine growth and passage of KB and BSC-1 cells was performed in monolayer cultures using minimal essential medium (MEM) with either Hanks salts [MEM(H)] or Earle salts [MEM(E)] supplemented with 10% calf serum. The sodium bicarbonate concentration was varied to meet the buffering capacity required. Cultures of diploid human foreskin fibroblast (HFF) or MRC-5 cells were grown in medium consisting of MEM(E) with 10% fetal bovine serum. Cells were passaged at 1:2 to 1:10 dilutions according to conventional procedures by using 0.05% trypsin plus 0.02% EDTA in a HEPES buffered salt solution (HBS) [Shipman, C., Jr., Proc. Soc. […] HFF and MRC-5 cells were passaged only at 1:2 dilutions. The Towne strain, plaque-purified isolate Po, of HCMV was kindly provided by Dr. Mark Stinski, University of Iowa. The KOS strain of HSV-1 was used in most experiments and was provided by Dr. Sandra K. Weller, University of Conn.
Stock HCMV was prepared by infecting HFF cells at a multiplicity of infection (m.o.i.) of <0.01 plaque-forming units (p.f.u.) per cell. Cell growth medium was changed every four days until cytopathology was evident in all cells (approximately 21 days). Supernatant fluids were retained as the virus stock.
Virus titers were determined using monolayer cultures of HFF cells for HCMV and monolayer cultures of BSC-1 cells for HSV-1 as described earlier [Prichard, M. N., et al., J. Virol. […] Briefly, HFF or BSC-1 cells were planted as described above in 96-well cluster dishes and incubated overnight at 37. degree. C. in a humidified 3% C02 -97% air atmosphere. The next day cultures were inoculated with HCMV or HSV-1 and serially diluted 1:3 across the remaining eleven columns of the 96-well plate. Cultures were incubated at 37. degree. C. for 2 hr to permit virus adsorption and then virus inoculum was replaced with 0.2 ml of fresh medium. Cultures were incubated for seven days for HCMV, two or three days for HSV-1, the medium was removed, and the cell sheets were stained with 0.1% crystal violet in 20% methanol.
HFF cells in 24-well cluster dishes were infected with approximately 100 p.f.u. of HCMV per cm^2 cell sheet using the procedures detailed above. Following virus adsorption, compounds dissolved in growth medium were added to duplicate wells in four to eight selected concentrations. After incubation at 37° C. for 7 to 10 days, cell sheets were fixed, stained with crystal violet and microscopic plaques enumerated as described above.
After virus adsorption, inoculum was replaced with 0.2 mL of fresh medium containing test compounds. The first row of 12 wells was left undisturbed and served as virus controls. Each well in the second row received an additional 0.1 mL of medium with test compound at three times the desired final concentration. The contents of the 12 wells were mixed by repeated pipetting and then serially diluted 1:3 along the remaining wells. In this manner, six compounds could be tested in duplicate on a single plate with concentrations from […]. Plates were incubated at 37° C. for seven days, subjected to one cycle of freezing and thawing; aliquots from each of the eight wells of a given column were transferred to the first column of a fresh 96-well monolayer culture of HFF cells. Contents were mixed and serially diluted 1:3 across the remaining eleven columns of the secondary plate. Each column of the original primary plate was diluted across a separate plate in this manner. Cultures were incubated, plaques were enumerated, and titers calculated as described above.
as §2

[2] = test system: human foreskin fibroblasts (HFF cells); test: Cytotoxicity in stationary HFF cells (microscopic inspection of plaque assay cells); type: cell-based; conditions: read-out: HFF
Method: as §1, §2

[3] = test system: herpes simplex virus type 1 (HSV-1); test: HSV-1 ELISA in BSC-1 cells; type: cell-based, KOS strain; conditions: read-out: HSV-1
Method: as §3
High titer HSV-1 stocks were prepared by infecting BSC cells at an m.o.i. of <0.1 as detailed previously [Turk, S. R., et al., Antimicrob.
Ninety-six-well cluster dishes were planted with 10,000 BSC-1 cells per well in 200 μL per well of MEM(E) plus 10% calf serum. After overnight incubation at 37° C., selected drug concentrations in quadruplicate and HSV-1 at a concentration of 100 p.f.u./well were added. Following a 3-day incubation at 37° C., medium was removed, plates were blocked, rinsed, and horse radish peroxidase conjugated rabbit anti-HSV-1 antibody was added. Following removal of the antibody containing solution, plates were rinsed, and then developed by adding 150 μL per well of a solution of tetramethylbenzidine as substrate. The reaction was stopped with H2SO4 and absorbance was read at 450 and 570 nm. Drug effects were calculated as a percentage of the reduction in absorbance in the presence of each drug concentration compared to absorbance obtained with virus in the absence of drug.
as §2

[4] = Human alphaherpesvirus 1, BSC-1, 72 h
[5] = Table 1, cytotoxicity, KB cell growth, 48 hours
[6] = Table 1, cytotoxicity, stationary HFF cells, visual
[7] = Human alphaherpesvirus 1, 72 h, Table 1, fifty-percent inhibitory concentration, ELISA, BSC-1 cells, 3-day incubation

| Structure (SMILES) | IC50 (KB cells; KB, 48 h) [µM] | IC50 [1] [µM] | IC50 ([2]; HFF) [µM] | IC50 [3, 4] [µM] | antiviral activity against HCMV (in words) [1] | IC50 (KB cells; [5]) [µM] | IC50 [2, 6] [µM] | IC50 [3, 7] [µM] |
| --- | --- | --- | --- | --- | --- | --- | --- | --- |
| Cc1ccccc1Cn1cc(C(N)=O)c2c(N)ncnc21 [Compound 636, 4-amino-7-(2-methylbenzyl)-pyrrolo[2,3-d]pyrimidine-5-carboxamide] | ≥ 222 | 14.5 | 100 | > 100 | – | – | – | – |
| Cc1ccc(Cn2cc(C(N)=O)c3c(N)ncnc32)cc1 [Compound 658, 4-amino-7-(4-methylbenzyl)-pyrrolo [2,3-d]pyrimidine-5-carboxamide] | ≥ 222 | 181 | 141 | > 100 | – | – | – | – |
| NC(=O)c1cn(Cc2ccccc2)c2ncnc(N)c12 [Compound 659, 4-amino-7-benzyl-pyrrolo[2,3-d]pyrimidine-5-carboxamide] | 75 | 171 | 118 | 32.6 | – | – | – | – |
| Cc1cccc(Cn2cc(C(N)=O)c3c(N)ncnc32)c1 [Compound 826, 4-amino-7-(3-methylbenzyl)-pyrrolo[2,3-d]pyrimidine-5-carboxamide] | ≥ 222 | ≥ 222 | ≥ 222 | > 100 | – | – | – | – |
| COc1ccc(Cn2cc(C(N)=O)c3c(N)ncnc32)cc1 [Compound 839, 4-amino-7-(4-methoxybenzyl)-pyrrolo[2,3-d]pyrimidine-5-carboxamide] | 47 | 13 | 127 | 35 | good to excellent antiviral activity | – | – | – |
| CC(C)(C)c1ccc(Cn2cc(C(N)=O)c3c(N)ncnc32)cc1 [Compound 845, 4-amino-7-(4-t-butylbenzyl)-pyrrolo[2,3-d]pyrimidine-5-carboxamide] | 1 | 28 | 100 | 50 | – | – | – | – |
| N#Cc1c(N)n(CC=Cc2ccccc2)c2ncnc(N)c12 [Compound 1329, 4,6-diamino-7-(3-phenyl)prop-2-enyl-pyrrolo[2,3-d]pyrimidine-5-carbonitrile] | – | 19 | – | – | – | 33 | 46 | 40 |
| N#Cc1c(Br)n(Cc2ccc([N+](=O)[O-])cc2)c2ncnc(N)c12 [Compound 1331, 4-amino-6-bromo-7-(4-nitrobenzyl)-pyrrolo[2,3-d]pyrimidine-5-carbonitrile] | – | > 10 | – | – | – | > 100 | > 10 | > 100 |
| N#Cc1c(Br)n(CCCc2ccccc2)c2ncnc(N)c12 [Compound 1347, 4-amino-6-bromo-7-(3-phenyl)propyl-pyrrolo[2,3-d]pyrimidine-5-carbonitrile] | – | > 10 | – | – | – | > 100 | > 10 | ≥ 222 |
| N#Cc1c(N)n(Cc2ccc([N+](=O)[O-])cc2)c2ncnc(N)c12 [Compound 1348, 4,6-diamino-7-(4-nitrobenzyl)-pyrrolo[2,3-d]pyrimidine-5-carbonitrile] | – | 0.6 | – | – | good to excellent antiviral activity | > 100 | > 10 | 156 |
| N#Cc1c(N)n(CCCc2ccccc2)c2ncnc(N)c12 [Compound 1350, 4,6-diamino-7-(3-phenyl)propyl-pyrrolo[2,3-d]pyrimidine-5-carbonitrile] | – | 5 | – | – | excellent activity | 50 | > 100 | 121 |
| N#Cc1c(Br)n(CCc2ccccc2)c2ncnc(N)c12 [Compound 1351, 4-amino-6-bromo-7-(2-phenyl)ethyl-pyrrolo[2,3-d]pyrimidine-5-carbonitrile] | – | 1 | – | – | excellent activity | > 100 | > 100 | ≥ 222 |
| N#Cc1c(N)n(Cc2ccc(N)cc2)c2ncnc(N)c12 [Compound 1352, 4,6-diamino-7-(4-aminobenzyl)-pyrrolo[2,3-d]pyrimidine-5-carbonitrile] | – | > 100 | – | – | good to excellent antiviral activity | 146 | > 100 | 100 |
| N#Cc1c(Br)n(Cc2ccc(F)cc2)c2ncnc(N)c12 [Compound 1353, 4-amino-6-bromo-7-(4-flurobenzyl)-pyrrolo[2,3-d]pyrimidine-5-carbonitrile] | – | 1.4 | – | – | – | > 100 | 116 | 60 |
| N#Cc1c(N)n(Cc2ccc(Cl)cc2)c2ncnc(N)c12 [Compound 1356, 4,6-diamino-7-(4-chlorobenzyl)-pyrrolo[2,3-d]pyrimidine-5-carbonitrile] | – | 0.2 | – | – | good to excellent antiviral activity | 76 | 46 | 17 |
| N#Cc1cn(Cc2ccc([N+](=O)[O-])cc2)c2ncnc(N)c12 [Compound 1360, 4-amino-7-(4-nitrobenzyl)-pyrrolo[2,3-d]pyrimidine-5-carbonitrile] | – | 1.6 | – | – | good to excellent antiviral activity | > 100 | > 10 | > 100 |
| N#Cc1c(Br)n(CC=Cc2ccccc2)c2ncnc(N)c12 [Compound 1361, 4-amino-6-bromo-7-(3-phenyl)prop-2-enyl-pyrrolo[2,3-d]pyrimidine-5-carbonitrile] | – | > 100 | – | – | – | > 100 | > 100 | > 100 |
| N#Cc1cn(CCCc2ccccc2)c2ncnc(N)c12 [Compound 1362, 4-amino-7-(3-phenyl)propyl-pyrrolo[2,3-d]pyrimidine-5-carbonitrile] | – | > 10 | – | – | – | > 100 | > 10 | > 100 |
| CC(c1ccccc1)n1c(Br)c(C#N)c2c(N)ncnc21 (centres unmarked) [Compound 1363, 4-amino-6-bromo-7-((2-phenyl)eth-2-yl)-pyrrolo[2,3-d]pyrimidine-5-carbonitrile] | – | 2.7 | – | – | good to excellent antiviral activity | 50 | > 100 | 90 |
| CNc1ncnc2c1c(C#N)c(Br)n2CCc1ccccc1 [Compound 1463, 4-methylamino-6-bromo-7-(2-phenyl)ethyl-pyrrolo[2,3-d]pyrimidine-5-carbonitrile] | – | > 10 | – | – | – | – | > 10 | – |
